≈ marks a conversion by molar mass, not a printed value. Like-named read-outs stand apart in the source and are kept apart here.
Tests used:
E. coli ATCC 25922 = assay: CytoSPAR BLAST antibiotic susceptibility test; type: cell-based; conditions: for MIC: Escherichia coli; for S, I, R: susceptible, intermediate, resistant category
Description: (§1) The disclosed technology, which is referred to as the CytoSPAR BLAST (Bacteria Labeling Antibiotic Susceptibility Test) system, is used to quantitatively assess bacterial minimal inhibitory concentration of antibiotics for in vitro susceptibility testing. Used as an aid in diagnosis for clinicians in determining potential treatment options for patients suspected of having a microbial infection, BLAST is intended to determine susceptibility of microorganisms to the listed antibiotics (or other antimicrobials) according to manufacturer's standards. The system is intended for use with clinical isolates from liquid culture and colonies grown on agar (solid medium) or directly from urine samples. Certain implementations of BLAST determine antibiotic susceptibility for a wide range of bacteria obtained from various types of patient samples, including samples from individuals suffering from urinary tract infections. The disclosed technology includes a high-throughput assay that directly detects bacterial susceptibility to a library of frequently used antibiotics and covers both Gram-negative and Gram-positive bacteria.
(§2) The test incorporates a non-canonical amino acid (ncAA) into newly produced proteins. The incorporated ncAA includes a reactive group which allows a specific modification and detection of the living bacteria. The assay involves bacterial incorporation of the ncAA, a chemical reaction between a reactive group and a fluorophore-tagged ligand, and detection of the newly fluorescent-tagged bacteria using a fluorescent plate reader or functionally similar device. The ncAA is added to bacterial growth media and is incorporated into newly synthesized bacterial proteins. The reactive groups on the ncAA are not naturally found in bacteria and act as a specific reactive group for bacteria undergoing active protein synthesis. […] The entire process is performed in a microtiter filter plate for high-throughput scale-up. Alternatively, a normal 96-well plate can also be used in which case centrifugation is used to wash the plate instead of filtration.
(§3) In an example embodiment, bacterial samples are first diluted and incubated in acclimatization media. After treatment with one or more antimicrobials, the ncAA is added and is taken up by living bacteria during protein biosynthesis in a process called labeling. […] The Click-Chemistry reaction between the alkyne group of the ncAA and the azide group of the fluorophore-tagged ligand requires the presence of copper in the reduced state-copper (I). In other implementations, the functional groups of the click chemistry reaction can be changed so that the ncAA has the azide group and the dye has the alkyne group. […] Other reducing agents may be used in the BLAST assay, for example, aldoses (sugars) including glyceraldehyde, glucose, and ribose to replace sodium ascorbate. Likewise, alternate chelators may be used (e.g., histidine in place of BTTAA). In some implementations, metal-free click chemistry reactions are performed without using copper.
(§4) Using the BLAST system, tests can be performed on isolates or direct urine samples. Isolates may be from urine, blood, or other body fluids. Isolated bacteria may be either Gram-positive or Gram-negative. In an example implementation, living bacterial samples in acclimatization media (Buffer A) are distributed in a microtiter filter plate, wherein certain predetermined wells include antibiotics of interest at different concentrations. These antibiotics are arrayed with increasing concentrations in adjacent wells so that the bacterial response can be measured against each specific concentration. The response is measured quantitatively, and a value that corresponds to the ability of the bacteria to metabolize and grow is measured.

S. aureus ATCC 29213 [1] = assay: CytoSPAR BLAST antibiotic susceptibility test; type: cell-based; conditions: for S, I, R: susceptible, intermediate, resistant category; for MIC: Staphylococcus aureus
Description: as §1, §2, §3, §4

S. aureus ATCC 29213 [2] = conditions: CLSI M100-Ed34E; cited from earlier work
P. mirabilis LSI 4698 [3] = assay: CytoSPAR BLAST antibiotic susceptibility test; type: cell-based
Description: as §1, §2, §3, §4

P. mirabilis LSI 4933 [4] = assay: CytoSPAR BLAST antibiotic susceptibility test; type: cell-based
Description: as §1, §2, §3, §4

K. pneumoniae LSI 4552 [5] = assay: CytoSPAR BLAST antibiotic susceptibility test; type: cell-based
Description: as §1, §2, §3, §4

K. pneumoniae LSI CT1045 [6] = assay: CytoSPAR BLAST antibiotic susceptibility test; type: cell-based
Description: as §1, §2, §3, §4

E. coli LSI 770 [7] = assay: CytoSPAR BLAST antibiotic susceptibility test; type: cell-based; conditions: for MIC: Escherichia coli
Description: as §1, §2, §3, §4

S. aureus ATCC 29213 [8] = assay: reference broth microdilution (rBMD); type: cell-based
Description: (§5) Following optimization of the BLAST assay, two other tests were performed in which 12 antibiotics (covering different classes) and 8 bacterial strains (Gram-positive and Gram-negative) were assayed using the same method as described above. Different bacterial strains were tested against different antibiotics and for each pair tested, the BLAST MIC value was compared to the CLSI QC range where available, or to the reference broth microdilution (rBMD) MIC which was determined in parallel with the BLAST assay following the CLSI protocols (see references [9]).
(§6) The inoculated urine cultures were incubated overnight at 35+2° C. Each urine culture was centrifuged, and the sediment used to prepare the BLAST inoculum of 5.0×10^5 CFU/mL to start the assay as described in the protocols section. […] The spiked urine samples were tested in parallel with isolates and the resultant BLAST MIC values were compared. In addition to the BLAST test, all the samples were also tested using the reference broth microdilution (rBMD) method and the MIC values were compared.

E. coli LSI 770 [9] = assay: reference broth microdilution (rBMD); type: cell-based; conditions: Escherichia coli, LSI770
Description: as §5, §6

P. mirabilis LSI 4698 [10] = assay: reference broth microdilution (rBMD); type: cell-based; conditions: Proteus mirabilis, LSI4698
P. mirabilis LSI 4933 [11] = assay: reference broth microdilution (rBMD); type: cell-based; conditions: Proteus mirabilis, LSI4933
Description: as §5

K. pneumoniae LSI 4552 [12] = assay: reference broth microdilution (rBMD); type: cell-based; conditions: Klebsiella pneumoniae, LSI4552
Description: as §5

K. pneumoniae LSI CT1045 [13] = assay: reference broth microdilution (rBMD); type: cell-based; conditions: Klebsiella pneumoniae, LSICT1045
Description: as §5

[14] = ATCC25922, Table 6, optimized BLAST, cutoff 0.8, read-out: MIC BLAST
[15] = susceptible, intermediate, resistant category
[16] = ATCC29213, Table 6, S. aureus ATCC 29213, optimized BLAST, cutoff 0.8, read-out: MIC BLAST

Question: What does the source list for `CC1(C)S[C@@H]2[C@H](NC(=O)[C@H](N)c3ccccc3)C(=O)N2[C@H]1C(=O)O` [Ampicillin, ampicillin]?
Answer: MIC (E. coli ATCC 25922; [14]): 4 µg/mL (≈ 11.4 µM); S, I, R (E. coli ATCC 25922): Susceptible; S, I, R (S. aureus ATCC 29213 [1]; S. aureus ATCC 29213): Susceptible; MIC CLSI QC Range (S. aureus ATCC 29213 [2]): 0.5 to 2 µg/mL

Question: Which MIC (P. mirabilis LSI 4698 [3]; Proteus mirabilis, LSI4698, Table 7) does the source give for `Cc1nnc(SCC2=C(C(=O)O)N3C(=O)[C@@H](NC(=O)Cn4cnnn4)[C@H]3SC2)s1` [Cefazolin, cefazolin] here?
Answer: 4.4 µg/mL (≈ 9.68 µM)

Question: What about the “S, I, R” value (P. mirabilis LSI 4698 [3]; [15]) of the same compound?
Answer: Susceptible

Question: What about the “BLAST MIC” value (E. coli ATCC 25922; 5×10^6 CFUs/mL, cutoff 0.8, FIGS. 16-18) of the same compound?
Answer: 2.0 µg/mL

Question: What about the MIC (E. coli ATCC 25922; ATCC25922, Table 8, isolates, 5 × 10^5 CFU/mL, read-out: MIC BLAST Isolates) of the same compound?
Answer: 4.44 µg/mL (≈ 9.77 µM)

Question: What about the MIC (E. coli ATCC 25922; ATCC25922, Table 8, spiked urine sample, 5 × 10^5 CFU/mL, read-out: MIC BLAST Spiked Urine) of the same compound?
Answer: 1.11 µg/mL (≈ 2.44 µM)

Question: What about the “S, I, R” value (E. coli ATCC 25922) of the same compound?
Answer: Susceptible

Question: And the MIC (P. mirabilis LSI 4933 [4]; Proteus mirabilis, LSI4933, Table 7)?
Answer: 4.4 µg/mL (≈ 9.68 µM)

Question: What about the “S, I, R” value (P. mirabilis LSI 4933 [4]; [15]) of the same compound?
Answer: Susceptible

Question: What about the MIC (K. pneumoniae LSI 4552 [5]; Klebsiella pneumoniae, LSI4552, Table 7) of the same compound?
Answer: 2 µg/mL (≈ 4.4 µM)

Question: And the “S, I, R” value (K. pneumoniae LSI 4552 [5]; [15])?
Answer: Susceptible

Question: And the BLAST MIC (S. aureus ATCC 29213 [1]; S. aureus ATCC 29213, FIG. 19)?
Answer: < 0.125 µg/mL

Question: What about the “S, I, R” value (S. aureus ATCC 29213 [1]; S. aureus ATCC 29213) of the same compound?
Answer: Susceptible

Question: And the MIC (S. aureus ATCC 29213 [1]; ATCC29213, S. aureus ATCC 29213, 5×10^6 CFUs/mL, cutoff 0.8, FIGS. 19-21, read-out: BLAST MIC)?
Answer: < 0.125 µg/mL

Question: And the MIC (S. aureus ATCC 29213 [1]; ATCC29213, Table 7, S. aureus ATCC 29213, read-out: MIC BLAST)?
Answer: 0.14 µg/mL (≈ 0.308 µM)

Question: And the MIC (S. aureus ATCC 29213 [1]; ATCC29213, Table 8, S. aureus ATCC 29213, isolates, 5 × 10^5 CFU/mL, read-out: MIC BLAST Isolates)?
Answer: 0.14 µg/mL (≈ 0.308 µM)

Question: What about the MIC (S. aureus ATCC 29213 [1]; ATCC29213, Table 8, S. aureus ATCC 29213, spiked urine sample, 5 × 10^5 CFU/mL, read-out: MIC BLAST Spiked Urine) of the same compound?
Answer: 0.28 µg/mL (≈ 0.616 µM)

Question: What about the MIC (S. aureus ATCC 29213 [1]; ATCC29213, read-out: MIC BLAST, Table 6, S. aureus ATCC 29213, optimized BLAST, cutoff 0.8) of the same compound?
Answer: 0.125 µg/mL (≈ 0.275 µM)

Question: And the MIC (K. pneumoniae LSI CT1045 [6]; Klebsiella pneumoniae, LSICT1045, Table 7)?
Answer: > 142 µg/mL

Question: What about the “S, I, R” value (K. pneumoniae LSI CT1045 [6]; [15]) of the same compound?
Answer: Resistant

Question: What about the “S, I, R” value (E. coli LSI 770 [7]; E. coli LSI 770, susceptible, intermediate, resistant category) of the same compound?
Answer: Resistant

Question: And the MIC (E. coli LSI 770 [7]; LSI770, read-out: MIC BLAST Isolates)?
Answer: > 142 µg/mL

Question: What about the MIC (E. coli LSI 770 [7]; LSI770, read-out: MIC BLAST Spiked Urine) of the same compound?
Answer: > 142 µg/mL

Question: What about the MIC (E. coli LSI 770 [7]; LSI770, Table 7, E. coli LSI 770, read-out: MIC BLAST) of the same compound?
Answer: > 142 µg/mL

Question: What about the MIC (S. aureus ATCC 29213 [8]; Staphylococcus aureus, ATCC29213) of the same compound?
Answer: 0.5 µg/mL (≈ 1.1 µM)

Question: And the “MIC rBMD” value (S. aureus ATCC 29213 [8]; Table 8, S. aureus ATCC 29213, geometric mean MIC rounded to nearest 2-fold dilution, n = 3)?
Answer: 0.5 µg/mL (≈ 1.1 µM)

Question: And the MIC (E. coli LSI 770 [9])?
Answer: > 256 µg/mL

Question: And the MIC (P. mirabilis LSI 4698 [10])?
Answer: 16 µg/mL (≈ 35.2 µM)

Question: What about the MIC (P. mirabilis LSI 4933 [11]) of the same compound?
Answer: 8 µg/mL (≈ 17.6 µM)

Question: And the MIC (K. pneumoniae LSI 4552 [12])?
Answer: 8 µg/mL (≈ 17.6 µM)

Question: What about the MIC (K. pneumoniae LSI CT1045 [13]) of the same compound?
Answer: > 256 µg/mL

Question: Which results are given for `CO[C@@]1(NC(=O)Cc2cccs2)C(=O)N2C(C(=O)O)=C(COC(N)=O)CS[C@@H]21` [Cefoxitin, cefoxitin]?
Answer: MIC (E. coli ATCC 25922; [14]): 4 µg/mL (≈ 9.36 µM); S, I, R (E. coli ATCC 25922): Susceptible; S, I, R (S. aureus ATCC 29213 [1]; S. aureus ATCC 29213): Susceptible; MIC (S. aureus ATCC 29213 [1]; [16]): 1 µg/mL (≈ 2.34 µM)

Question: Which results are given for `CO/N=C(\C(=O)N[C@@H]1C(=O)N2C(C(=O)O)=C(CSc3nc(=O)c(=O)[nH]n3C)CS[C@H]12)c1csc(N)n1` [Ceftriaxone, ceftriaxone]?
Answer: S, I, R (E. coli ATCC 25922): Susceptible; S, I, R (S. aureus ATCC 29213 [1]; S. aureus ATCC 29213): Susceptible; MIC (S. aureus ATCC 29213 [1]; [16]): 1 µg/mL (≈ 1.8 µM)
